Entries after “also recorded” stand apart in the source; their conditions may differ.
How the values were obtained:
[1] = molecular target: RgCBM40 (Mediterraneibacter gnavus (Ruminococcus gnavus), UniProt A7B557); assay: ITC of sialoglycans binding to RgCBM40 wild type; parameters: species or system Ruminococcus gnavus ATCC 29149; settings: RgCBM40 WT; for Kd: ITC in PBS, 115-230 μM protein in cell, syringe 10 mM sugar (25 mM for Neu5Ac), * = estimate only, Kd too high to determine; for -T∆S / ∆G / ∆H: ITC, SD of three results
Protocol: (§1) Isothermal titration calorimetry (ITC) experiments were performed using the PEAQ-ITC system (Malvern, Malvern, UK) with a cell volume of 200 µl. Prior to titration protein samples were exhaustively dialysed into PBS. The ligand was dissolved in the dialysis buffer. The cell protein concentration was 115 µM (except for mutant I95A where it was 173 µM and the wild-type interaction with 6′SL where it was 230 µM) and the syringe ligand concentration was 10 mM (25 mM for Neu5Ac). Controls with titrant (sugar) injected into buffer only were subtracted from the data. Analysis was performed using Malvern software, using a single-binding site model. The stoichiometry of binding sites was set to 1.0 as this was evident from the crystal structure. Quantitative and most qualitative experiments were carried out in triplicate.

[2] = molecular target: T1, RgCBM40 Y210A (Mediterraneibacter gnavus (Ruminococcus gnavus), UniProt A7B557, Y210A); assay: ITC of sialoglycans binding to RgCBM40 mutant Y210A; parameters: species or system Ruminococcus gnavus ATCC 29149; settings: for Kd: ITC
T1 sequence (A7B557 50-237 Y210A): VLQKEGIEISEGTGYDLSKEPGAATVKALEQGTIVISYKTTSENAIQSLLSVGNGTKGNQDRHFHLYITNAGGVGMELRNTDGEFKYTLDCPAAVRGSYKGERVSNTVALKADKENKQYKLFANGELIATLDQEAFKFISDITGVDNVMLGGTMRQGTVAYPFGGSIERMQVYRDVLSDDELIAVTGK
Protocol: as §1

[3] = molecular target: T2, RgCBM40 I95A (Mediterraneibacter gnavus (Ruminococcus gnavus), UniProt A7B557, I95A); assay: STD NMR of sialoglycans with RgCBM40 I95A mutant; format: binding, Ruminococcus gnavus ATCC 29149; settings: 1 mM sialoglycan, 50 μM RgCBM40 I95A
T2 sequence (A7B557 50-237 I95A): T1 sequence (A7B557 50-237 Y210A)
Protocol: ^1H and ^13C resonance assignment for all the sugars was performed on the bases of 1D ^1H, 2D DQF-COSY, TOCSY, HSQC and NOESY experiments run on the free ligands in unbuffered D2O, pH 7.0. For STD NMR experiments, all the samples consisted of 1 mM sialoglycans and 50 μM RgCBM40 (WT or I95A mutant) in D2O buffer solution of 10 mM Tris-d11 pH 7.8 and 100 mM NaCl (ligand: protein ratio 20:1). An STD pulse sequence that included 2.5 ms and 5 ms trim pulses and a 3 ms spoil gradient was used. Saturation was achieved applying a train of 50 ms Gaussian pulses (0.40 mW) on the f2 channel, at 0.60 p.p.m. (on-resonance experiments) and 40 p.p.m. (off-resonance experiments). The broad protein signals were removed using a 40 ms spinlock (T1ρ) filter. All the experiments were recorded at ^1H frequency of 800.23 MHz on a Bruker Avance III spectrometer equipped with a 5 mm probe TXI 800 MHz H-C/N-D-05 Z BTO, at 288 K. For all the sialoglycans in the presence of RgCBM40, an STD experiment with a saturation time of 2 s and a relaxation delay of 5 s was performed, as a first test for binding. For the confirmed binders, the STD NMR experiments were carried out at different saturation times (0.5, 1, 2, 3, 4 and 5 s) with 1 K scans and relaxation delay of 5 s, in order to obtain the binding epitope mapping. […]

[4] = molecular target: T3, RgCBM40 R128A/R204A (Mediterraneibacter gnavus (Ruminococcus gnavus), UniProt A7B557, R128A/R204A); assay: ITC of sialoglycans binding to RgCBM40 double mutant R128A/R204A; parameters: species or system Ruminococcus gnavus ATCC 29149; settings: for Kd: ITC
T3 sequence (A7B557 50-237 R128A/R204A): T1 sequence (A7B557 50-237 Y210A)
Protocol: (§2) Site directed mutagenesis of RgGH33 to introduce the D282A mutation in the active site was carried out using the QuikChange kit, following the manufacturer’s instructions, Agilent (Santa Clara, CA, USA). Site-directed mutants of RgCBM40; I95A, Y116A, E126A, R128A, R204A and double mutant R128A/R204A, were obtained from NZyTech (Lisbon, Portugal). The primers are listed in Supplementary Table 4. The integrity of the RgGH33 and RgCBM40 mutants was checked by circular dichroism (CD).
as §1

[5] = molecular target: T2, RgCBM40 I95A; assay: ITC of sialoglycans binding to RgCBM40 mutant I95A; parameters: species or system Ruminococcus gnavus ATCC 29149; settings: for Kd: 173 µM protein, syringe 10 mM sugar (25 mM for Neu5Ac), * = estimate only
Protocol: as §2, §1

SMILES | Kd [1] [mM] | -T∆S [1] [kcal/mol] | ∆G [1] [kcal/mol] | ∆H [1] [kcal/mol] | Binding by ITC (in words) [2] | Kd [2] [mM] | Binding to I95A by STD-NMR [3] | Binding by ITC (in words) [4] | Kd [4] [mM] | -T∆S [5] [kcal/mol] | ∆G [5] [kcal/mol] | ∆H [5] [kcal/mol] | Kd [5] [mM]
CC(=O)N[C@H]1[C@H]([C@H](O)[C@H](O)CO)O[C@@](O[C@H]2[C@@H](O)[C@@H](CO)O[C@@H](O[C@H]3[C@H](O)[C@@H](O)C(O)O[C@@H]3CO)[C@@H]2O)(C(=O)O)C[C@@H]1O (stereo partly drawn) [3′SL, α2-3 sialyllactose] | 0.57 | 1.47 ± 0.77 | -4.43 ± 0.05 | -5.90 ± 0.72 | abolished | > 25 | confirmed | abolished; also recorded: loss of binding | > 25 | 0.97 ± 0.47 | -3.74 ± 0.04 | -4.71 ± 0.43 | 1.82
CC(=O)N[C@H]1[C@H]([C@H](O)[C@H](O)CO)O[C@@](OC[C@H]2O[C@@H](O[C@H]3[C@H](O)[C@@H](O)C(O)O[C@@H]3CO)[C@H](O)[C@@H](O)[C@H]2O)(C(=O)O)C[C@@H]1O (stereo partly drawn) [6′SL, α2,6-sialyllactose] | 1.7 | 5.82 ± 0.48 | -3.78 ± 0.05 | -9.61 ± 0.44 | abolished | > 25 | confirmed | abolished | > 25 | -0.12 ± 0.3 | -3.91 ± 0.07 | -3.79 ± 0.24 | 1.37

Source: paper PMC5736709, “Unravelling the specificity and mechanism of sialic acid recognition by the gut symbiont Ruminococcus gnavus” (Nature Communications, 2017)
